Where “and” joins values, the source holds several entries; their conditions need not be identical. Equal values may be shown once. Entries after “also recorded” stand apart in the source; their conditions may differ. Read-outs that look alike come from different tables or passages of the source.
Key:
[1] = test system: MCF7 (Normal mamma tumor); assay: Antiproliferate test in tumoral human cells, sulforrodamina B essay; assay type: cell-based
Method: (§1) Methodology utilized to perform the antitumoral tests:
(§2) Report of the Antiproliferate Test in Tumoral Human Cells with the Sulforrodamina B Essay
(§3) The cell lines used in the essays, described in the table 1, were maintained in recipients of 25 cm^2 (Nunc®), with 5 mL of culture medium RPMI 1640 supplemented with 5% bovine foetal serum (RPMI/SFB), at 37° C. in atmosphere of 5% of CO2 and 100% of humidity.
(§4) […] of cells in medium RPMI/SFB with 50 μg/mL of Gentamicin were inoculated in its respectives densities of inoculation, in plates of 96 compartments and incubated for 24 hours at 37° C. in atmosphere of 5% of CO2 and 100% of humidity.
(§5) After 24 hours, […] of the test substance were added in the following concentrations of 250; 25; 2.5; 0.2 μg/mL diluted in RPMI/SFB/gentamicin. In this moment the reading of one plate was performed for the determination of the T0 (cell control in the moment of the adding the samples). The other plates were incubated for 48 hours After this period the experiment was paused by adding the trichlorine acetic acid to further determine the protein content by means of […] essay with the sulforrodamina B.
(§6) The stocked solutions were developed by diluting the samples in dimethyl sulfoxide (DMSO) in the concentration of 0.1 g/mL. That solution was diluted by 400 times in RPMI/SFB/gentamicina to be added in the plates of 96 compartments being obtained so the a ideal concentration of DMSO (Skehan e cols. 1990).
(§7) At the end of the test, the plates of 96 compartments were centrifuged for 3 minutes at 2000 rpm, and they were fixed with 50 μL of a solution at 50% of trichloroacetic acid (TCA) at 4° C. To complete the cellular fixation, the plates were incubated for 1 hour at 4° C.
(§8) The plates were submitted to four consecutive washes with distillated water to remore the residues of TCA, medium, SFB and secondary metabolic and maintained at room temperature until the complete drying.
(§9) A coloration was performed by the adding of 50 μL SRB at 0.4% (weight/volume) diluted in acetic acid at 1%, and maintained at 4° C. for 30 minutes. Further, they were washed by 4 consecutive times with a solution of acetic acid 1%. The residue of the washing of the solution was removed and the plates were dried again at room temperature. The colorant linked to the cellular protein was diluted with a solution of Trizma Base (Sigma®) in concentration of […] and pH 10.5 for 5 minutes in ultrasonic bath. The spectrophotometric of absorbancy reading was performed in 560 nm in a micro plates lector (Labsystems Labsystems Multiskan® MCC/340).
(§10) The absorbancy averages were assessed having discounted its respective nulls and by means of the formula shown below was determined the growth inhibition (IC) of each tested sample.
(§11) If T≧T0 but <C, the drug was cytostatic and the formula used is 100×[(T−To)/(C−T0)]
(§12) If T<T0 the drug was cytotoxic and the formula used is […]
(§13) Considering that T is the absorbency average of the treated cell C is the cell control and T0 is the cell control in the addition day.
(§14) The obtained result was subtracted from 100% so obtaining the percentage of growth inhibition. The samples were considered actives since they presented growth inhibition dependant dose higher than 50% and selective lineage, that is, the preferential activity for only one type of tumoral cell or with cytostatic and/or killer cell effect well distinguished among the cell lines.
(§15) All the assays were performed in triplicates so that the presented results make reference to a representative experiment. The standard deflection from the average was always lower than 5%.

NCI460 (Lung tumor) = assay: as above; assay type: cell-based
Method: as §1, §2, §3, §4, §5, §6, §7, §8, §9, §10, §11, §12, §13, §14, §15

[2] = test system: NCIADR (Mamma tumor which expresses the phenotype resistance against multiple drugs); assay: as above; assay type: cell-based; conditions: for growth inhibition of the Mama NCI-ADR cell line, in words: resistance against multiple drugs
Method: as §1, §2, §3, §4, §5, §6, §7, §8, §9, §10, §11, §12, §13, §14, §15

UACC62 (Melanoma) = assay: as above; assay type: cell-based
Method: as §1, §2, §3, §4, §5, §6, §7, §8, §9, §10, §11, §12, §13, §14, §15

[3] = test system: all cell lines (nine different types of human cancer); assay: Antiproliferate test, sulforrodamina B essay, whole panel of cell lines; assay type: cell-based; conditions: for cytostatic / antiproliferate activity (growth inhibition), in words / concentration from which cytostatic activity (growth inhibition) is presented: all cell lines; for concentration from which cytotoxic / killer cell activity (cellular death) is presented: all cell lines of the panel; for selectivity for the studied cell lines, in words: panel of cell lines
Method: as §1, §2, §3, §4, §5, §6, §7, §8, §9, §10, §11, §12, §13, §14, §15

[4] = Acute toxicity test (LD50, body weight, deaths); assay type: in vivo, albinic swiss mouses; conditions: for Initial Weight, Average ± dpm / Initial Weight, single animal: beginning of the test; for Final Weight, Average ± dpm / Final Weight, single animal: ending of the test
Method: Also a toxicological test with the sample denominated 37 compound (Acute Toxicity, LD50, via intraperitoneal).
Methodology utilized to perform the toxicological tests:
10 albinic swiss mouses are used, of the male gender, weighting approximately 25 g, for each of the treated groups and control;
Adaptation period: the animals are maintained in the tests room at least for 07 days before the beginning of the essay;
The animals are submitted to fast 12 hours before administering the test substance, done by gavage, at the time the animal's body weight is listed.
After the administration the animals are maintained in observation for a minimum period of 14 days.
The number of death animals for each one of the doses is listed and the LD50 is assessed by Litchfield and Wilcoxon's (1949) method and the animal's body weight is listed at the end of the acute toxicity test.

[5] = cited from earlier work
786-0 (Renal tumor) = assay: Antiproliferate test in tumoral human cells, sulforrodamina B essay; assay type: cell-based
Method: as §1, §2, §3, §4, §5, §6, §7, §8, §9, §10, §11, §12, §13, §14, §15

K-562 (Leukemia) = assay: as above; assay type: cell-based; conditions: K562
Method: as §1, §2, §3, §4, §5, §6, §7, §8, §9, §10, §11, §12, §13, §14, §15

HT29 (Colon tumor) = assay: as above; assay type: cell-based; conditions: HT-29
Method: as §1, §2, §3, §4
After 24 hours, […] of the test substance were added in the following concentrations of 250; 25; 2.5; 0.2 μg/mL diluted in RPMI/SFB/gentamicin. In this moment the reading of one plate was performed for the determination of the T0 (cell control in the moment of the adding the samples). […]
A coloration was performed by the adding of 50 μL SRB at 0.4% (weight/volume) diluted in acetic acid at 1%, and maintained at 4° C. for 30 minutes. […] The spectrophotometric of absorbancy reading was performed in 560 nm in a micro plates lector (Labsystems Labsystems Multiskan® MCC/340).
The absorbancy averages were assessed having discounted its respective nulls and by means of the formula shown below was determined the growth inhibition (IC) of each tested sample. […]

OVCAR-3 (Ovary tumor) = assay: as above; assay type: cell-based
Method: as §1, §2, §3, §4, §5, §6, §7, §8, §9, §10, §11, §12, §13, §14, §15

PC-3 (Prostate tumor) = assay: as above; assay type: cell-based; conditions: PC-03
Method: as §1, §2, §3, §4, §5, §6, §7, §8, §9, §10, §11, §12, §13, §14, §15

COc1cc(C=CC(=O)C=Cc2ccc(O)c(OC)c2)ccc1O [Compound 37, 1,5-bis(4-hydroxy-3-methoxyphenyl)-penta-1,4-dien-3-one]
concentration with cytotoxic activity (cellular death) [1]: ≥ 0.25 µg/mL | concentration with cytotoxic activity (cellular death) (NCI460 (Lung tumor)): ≥ 0.25 µg/mL | concentration with cytotoxic activity (cellular death) [2]: ≥ 0.25 µg/mL | growth inhibition of the Mama NCI-ADR cell line, in words ([2]; listed as 37/01): strong cytostatic activity | growth inhibition of the Mama NCI-ADR cell line, in words ([2]; listed as our product): inhibited the growth | concentration with cytotoxic activity (cellular death) (UACC62 (Melanoma)): ≥ 0.25 µg/mL | cytostatic / antiproliferate activity (growth inhibition), in words [3]: cytostatic activity (growth inhibition) for all cell lines | concentration from which cytotoxic / killer cell activity (cellular death) is presented [3]: ≥ 0.25 µg/mL | cytostatic / antiproliferate activity (growth inhibition), in words ([3]; listed as 37/01): cytostatic activity (growth inhibition) in the concentrations evaluated | Deaths (n), single animal ([4]; 2.5 g/Kg via intraperitoneal): 0 | Initial Weight, Average ± dpm ([4]; 2.5 g/Kg via intraperitoneal): 24.60 ± 2.51 g | Initial Weight, single animal ([4]; 2.5 g/Kg via intraperitoneal): 24.5 g and 25.4 g (2×) and 24.1 g and 26.6 g and 24.8 g and 22.5 g and 29.7 g and 22.4 g and 20.6 g | Final Weight, Average ± dpm ([4]; 2.5 g/Kg via intraperitoneal): 27.88 g | Final Weight, single animal ([4]; 2.5 g/Kg via intraperitoneal): 26.4 g and 28.0 g and 28.6 g and 27.4 g and 29.0 g and 27.8 g and 25.0 g and 31.2 g and 25.4 g and 22.8 g | Deaths (n), single animal ([4]; 3.0 g/Kg via intraperitoneal): 0 (9×) and 1 | Initial Weight, Average ± dpm ([4]; 3.0 g/Kg via intraperitoneal): 25.47 ± 2.43 g | Initial Weight, single animal ([4]; 3.0 g/Kg via intraperitoneal): 28.3 g and 30.9 g and 24.6 g and 25.4 g and 25.1 g and 23.2 g and 23.6 g (2×) and 26.0 g and 24.0 g | Final Weight, Average ± dpm ([4]; 3.0 g/Kg via intraperitoneal): 27.81 g | Final Weight, single animal ([4]; 3.0 g/Kg via intraperitoneal): 30.3 g and 32.5 g and 25.9 g and 28.0 g and 27.9 g and 25.6 g and 26.0 g and 25.8 g and 28.3 g and Death | Deaths (n), single animal ([4]; 4.0 g/Kg via intraperitoneal): 0 (9×) and 1 | Initial Weight, Average ± dpm ([4]; 4.0 g/Kg via intraperitoneal): 26.41 ± 3.52 g | Initial Weight, single animal ([4]; 4.0 g/Kg via intraperitoneal): 29.8 g and 25.5 g and 33.2 g and 25.9 g and 26.3 g and 28.9 g and 26.7 g and 23.3 g (2×) and 21.2 g | Final Weight, Average ± dpm ([4]; 4.0 g/Kg via intraperitoneal): 28.98 g | Final Weight, single animal ([4]; 4.0 g/Kg via intraperitoneal): 32.5 g and 26.9 g and 35.9 g and 28.9 g and 29.0 g and 30.2 g and 28.0 g and 25.9 g and 23.5 g and Death | Deaths (n), single animal ([4]; 5.0 g/Kg via intraperitoneal): 0 (8×) and 1 (2×) | Initial Weight, Average ± dpm ([4]; 5.0 g/Kg via intraperitoneal): 23.68 ± 1.42 g | Initial Weight, single animal ([4]; 5.0 g/Kg via intraperitoneal): 24.9 g and 21.0 g and 25.4 g and 22.2 g and 24.0 g and 23.8 g and 22.5 g and 23.5 g and 24.2 g and 25.3 g | Final Weight, Average ± dpm ([4]; 5.0 g/Kg via intraperitoneal): 25.86 g | Final Weight, single animal ([4]; 5.0 g/Kg via intraperitoneal): 25.9 g (2×) and 24.0 g and 27.8 g and 25.6 g and 27.0 g and 25.8 g and 24.9 g and Death (2×) | toxicity classification according to Loomis, in words ([4]; from LD50 (5.0-15 g/Kg = practically nontoxic)): practically nontoxic | LD50 at 14 days ([4]; male, Swiss albino, mouse, in vivo, ip, acute toxicity, via intraperitoneal, linear regression, 14 days of observation): 8540 mg/kg

COc1cccc2c1C(=O)c1c(O)c3c(c(O)c1C2=O)C[C@@](O)(C(=O)CO)C[C@@H]3O[C@H]1C[C@H](N)[C@H](O)[C@H](C)O1 [Doxorubicin, reference compound]
growth inhibition of the Mama NCI-ADR cell line, in words [2]: does not inhibit the growth; also recorded: did not inhibit the growth | toxicity, in words ([5]; in vivo): extremely toxic | LD50 ([5]; species and route not given): 20 mg/kg

COc1cc(C=CC(=O)C=Cc2ccc(OC(C)=O)c(OC)c2)ccc1OC(C)=O [EHB1, 1,5-bis(3-metoxy-4-acetoxyphenyl)-penta-1,4-dien-3-one]
growth inhibition ([2]; NCI-ADR cell line, concentration not clearly stated (from 25 μg/mL)): around 25% | concentration from which cytostatic activity (growth inhibition) is presented [3]: ≥ 0.25 µg/mL | concentration from which cytotoxic / killer cell activity (cellular death) is presented [3]: ≥ 25 µg/mL | selectivity for the studied cell lines, in words [3]: not selective

COc1cc(C=CC(=O)C=Cc2ccc(OCC=C(C)C)c(OC)c2)ccc1OCC=C(C)C [HB6, 1,5-Bis[3-metoxy-4-(3-methyl-but-2-eniloxy)phenyl]-penta-1,4-dien-3-one]
concentration with cytotoxic activity (cellular death) (786-0 (Renal tumor)): 250 µg/mL | concentration with cytotoxic activity (cellular death) (K-562 (Leukemia)): 250 µg/mL | concentration with cytotoxic activity (cellular death) ([2]; NCIADR): 250 µg/mL | concentration with cytotoxic activity (cellular death) (HT29 (Colon tumor)): 250 µg/mL | concentration from which cytostatic activity (growth inhibition) is presented [3]: ≥ 25 µg/mL | selectivity for the studied cell lines, in words [3]: cellular selectivity for HT-29 and 786-0 cell lines

COc1ccc(C=CC(=O)C=Cc2ccc(OC)c(OC)c2)cc1OC [HBM1, 1,5-Bis(3,4-dimetoxyphenyl)-penta-1,4-dien-3-one]
concentration with cytotoxic activity (cellular death) (OVCAR-3 (Ovary tumor)): 250 µg/mL | concentration with cytotoxic activity (cellular death) (PC-3 (Prostate tumor)): 250 µg/mL | concentration from which cytostatic activity (growth inhibition) is presented [3]: ≥ 0.25 µg/mL
